Results from patent US20250018046A1, “COMPOUNDS FOR TARGETING DEGRADATION OF IRAK4 PROTEINS” (BIOGEN MA INC, priority 2021, published 2025).

The molecules below were run against T1, IRAK4 (Homo sapiens, UniProt Q9NWZ3) (assay: IRAK4 degradation assay using the HiBiT Method). Conditions: 293T cells expressing HiBiT-tagged IRAK4; 6-hour incubation; Nano-Glo HiBiT Lytic Assay luminescence.
T1 construct: knocking-in a HiBiT fusion tag into the C-terminal of the IRAK4 gene in 293T cells; host or cells: 293T cells, knock-in of HiBiT at the endogenous IRAK4 locus
T1 sequence (Q9NWZ3 1-460): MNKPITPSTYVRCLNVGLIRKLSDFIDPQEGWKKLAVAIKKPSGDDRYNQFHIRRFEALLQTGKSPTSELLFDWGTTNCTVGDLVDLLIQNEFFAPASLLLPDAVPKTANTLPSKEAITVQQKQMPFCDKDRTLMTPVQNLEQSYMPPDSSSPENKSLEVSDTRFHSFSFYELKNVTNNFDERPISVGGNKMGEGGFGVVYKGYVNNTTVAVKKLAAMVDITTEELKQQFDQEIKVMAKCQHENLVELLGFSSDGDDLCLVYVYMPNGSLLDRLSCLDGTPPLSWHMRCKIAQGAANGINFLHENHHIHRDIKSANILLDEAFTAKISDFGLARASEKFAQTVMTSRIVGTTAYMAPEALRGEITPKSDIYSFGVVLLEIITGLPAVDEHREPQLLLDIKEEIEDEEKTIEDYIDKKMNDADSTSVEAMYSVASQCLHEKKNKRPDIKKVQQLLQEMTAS
Format: cell-based
Procedure: Selected compounds were tested in an IRAK4 degradation assay using the HiBiT Method.
Phenol red-free Dulbecco's modified Eagle medium (DMEM) and fetal bovine serum (FBS) were purchased from Gibco (Grand Island, NY, USA). The Nano-Glo© HiBiT Lytic Assay System was purchased from Promega (Madison, WI, USA). Cell culture flasks and 384-well microplates were acquired from VWR (Radnor, PA, USA). The 293T cell line was engineered by knocking-in a HiBiT fusion tag into the C-terminal of the IRAK4 gene in 293T cells (Synthego, Redwood City, CA, USA).
IRAK4 degradation was measured via the quantification of luminescent signals using the Nano-Glo© HiBiT Lytic Assay kit. Test compounds were added to 384-well plates in duplicate using an 11-point half-log dilution series, with the highest dose set at 10 mM. 293T cells expressing HiBiT-tagged IRAK4 were then added into 384-well plates at a cell density of 10,000 cells per well. The plates were kept at 37° C. with 5% CO2 for 6 hours. Cells that were treated only with DMSO served as the negative control; wells that contained only assay media served as the background control. After the 6-hour incubation, Nano-Glo® HiBiT Lytic Assay reagents were added to the cells. Luminescence was acquired using an EnVision® Multilabel Reader (PerkinElmer, Santa Clara, CA, USA).
`CC(C)Oc1cc2nc([C@H]3CC[C@H](CN4CCC(c5cccc6c5n(C)c(=O)n6C5CCC(=O)NC5=O)CC4)CC3)cn2cc1NC(=O)c1cccc(C(F)(F)F)n1` (stereo partly drawn) [Example 37, N-[2-[4-[[4-[1-(2,6-dioxo-3-piperidyl)-3-methyl-2-oxo-benzimidazol-4-yl]-1-piperidyl]methyl]cyclohexyl]-7-isopropoxy-imidazo[1,2-a]pyridin-6-yl]-6-(trifluoromethyl)pyridine-2-carboxamide] gave a DC50 of 0.01 to 0.1 µM.
`CC(C)Oc1cc2nc(C3CCN(CC(=O)N4CCC(c5ccc(NC6CCC(=O)NC6=O)cc5)CC4)CC3)cn2cc1NC(=O)c1ccccn1` (stereo not drawn) [Example 55, N-[2-[1-[2-[4-[4-[(2,6-dioxo-3-piperidyl)amino]phenyl]-1-piperidyl]-2-oxo-ethyl]-4-piperidyl]-7-isopropoxy-imidazo[1,2-a]pyridin-6-yl]pyridine-2-carboxamide] gave a DC50 of 0.01 to 0.1 µM.
For `CC(C)Oc1cc2nc(C3CCN(CC(=O)N4CCN(c5ccc6c(N7CCC(=O)NC7=O)nn(C)c6c5)CC4)CC3)cn2cc1NC(=O)c1cccc(C(F)(F)F)n1` [Example 26, N-[2-[1-[2-[4-[3-(2,4-dioxohexahydropyrimidin-1-yl)-1-methyl-indazol-6-yl]piperazin-1-yl]-2-oxo-ethyl]-4-piperidyl]-7-isopropoxy-imidazo[1,2-a]pyridin-6-yl]-6-(trifluoromethyl)pyridine-2-carboxamide], the DC50 was 0.1 to 0.5 µM.
In the case of `CC(C)Oc1cc2nc(C3CCN(C(=O)CN4CCC(c5ccc(OC6CCC(=O)NC6=O)cc5)CC4)CC3)cn2cc1NC(=O)c1cccc(C(F)(F)F)n1` (stereo not drawn) [Example 1, N-[2-[1-[2-[4-[4-[(2,6-dioxo-3-piperidyl)oxy]phenyl]-1-piperidyl]acetyl]-4-piperidyl]-7-isopropoxy-imidazo[1,2-a]pyridin-6-yl]-6-(trifluoromethyl) pyridine-2-carboxamide], the DC50 is reported as 0.1 to 0.5 µM.
With `CC(C)Oc1cc2nc(C3CCN(CCN4CCC(c5ccc(C6CCC(=O)NC6=O)cc5F)CC4)CC3)cn2cc1NC(=O)c1cccc(C(F)(F)F)n1` (stereo not drawn) [Example 64, N-[2-[1-[2-[4-[4-(2,6-dioxo-3-piperidyl)-2-fluoro-phenyl]-1-piperidyl]ethyl]-4-piperidyl]-7-isopropoxy-imidazo[1,2-a]pyridin-6-yl]-6-(trifluoromethyl)pyridine-2-carboxamide] the DC50 was 0.1 to 0.5 µM.
`CC(C)Oc1cc2nn(C3CCN(CC(=O)N4CCC(c5ccc(NC6CCC(=O)NC6=O)cc5F)CC4)CC3)cc2cc1NC(=O)c1cccc(C(F)(F)F)n1` (stereo not drawn) [Example 50, N-[2-[1-[2-[4-[4-[(2,6-dioxo-3-piperidyl)amino]-2-fluoro-phenyl]-1-piperidyl]-2-oxo-ethyl]-4-piperidyl]-6-isopropoxy-indazol-5-yl]-6-(trifluoromethyl)pyridine-2-carboxamide] showed a DC50 of 0.01 to 0.1 µM.
Work on `CC(C)Oc1cc2nc(C3CCN(CC(=O)N4CCN(CCCc5ccc(NC6CCC(=O)NC6=O)cc5)CC4)CC3)cn2cc1NC(=O)c1cccc(C(F)(F)F)n1` (stereo not drawn) [Example 16, N-[2-[1-[2-[4-[3-[4-[(2,6-dioxo-3-piperidyl)amino]phenyl]propyl]piperazin-1-yl]-2-oxo-ethyl]-4-piperidyl]-7-isopropoxy-imidazo[1,2-a]pyridin-6-yl]-6-(trifluoromethyl) pyridine-2-carboxamide] yielded a DC50 of 0.1 to 0.5 µM.
Work on `CC(C)Oc1cc2nc(C3CCN(C(=O)CN4CCC(c5ccc(NC6CCC(=O)NC6=O)cc5)CC4)CC3)cn2cc1NC(=O)c1cccc(C(F)(F)F)n1` (stereo not drawn) [Example 9, N-[2-[1-[2-[4-[4-[(2,6-dioxo-3-piperidyl)amino]phenyl]-1-piperidyl]acetyl]-4-piperidyl]-7-isopropoxy-imidazo[1,2-a]pyridin-6-yl]-6-(trifluoromethyl)pyridine-2-carboxamide] yielded a DC50 of 0.01 to 0.1 µM.
Work on `CC(C)Oc1cc2nc([C@H]3CC[C@H](CN(C)C4CCN(c5ccc(NC6CCC(=O)NC6=O)cc5)CC4)CC3)cn2cc1NC(=O)c1cccc(C(F)(F)F)n1` (stereo partly drawn) [Example 36, N-[2-[4-[[[1-[4-[(2,6-dioxo-3-piperidyl)amino]phenyl]-4-piperidyl]-methyl-amino]methyl]cyclohexyl]-7-isopropoxy-imidazo[1,2-a]pyridin-6-yl]-6-(trifluoromethyl)pyridine-2-carboxamide] yielded a DC50 of 0.01 to 0.1 µM.
Molecule `CC(C)Oc1cc2nc(C3CCN(C(=O)CCC4CCN(C(=O)c5ccc(OC6CCC(=O)NC6=O)cc5)CC4)CC3)cn2cc1NC(=O)c1cccc(C(F)(F)F)n1` (stereo not drawn) [Example 81, N-[2-[1-[3-[1-[4-[(2,6-dioxo-3-piperidyl)oxy]benzoyl]-4-piperidyl]propanoyl]-4-piperidyl]-7-isopropoxy-imidazo[1,2-a]pyridin-6-yl]-6-(trifluoromethyl)pyridine-2-carboxamide] has a DC50 of 0.1 to 0.5 µM.
With `CC(C)Oc1cc2nc(C3CCN(CCC(=O)N4CCC(c5ccc(C6CCC(=O)NC6=O)cc5)CC4)CC3)cn2cc1NC(=O)c1cccc(C(F)(F)F)n1` (stereo not drawn) [Example 32, N-[2-[1-[3-[4-[4-(2,6-dioxo-3-piperidyl)phenyl]-1-piperidyl]-3-oxo-propyl]-4-piperidyl]-7-isopropoxy-imidazo[1,2-a]pyridin-6-yl]-6-(trifluoromethyl)pyridine-2-carboxamide] the DC50 was 0.1 to 0.5 µM.
`CC(C)Oc1cc2nc(C3CCN(CC(=O)N4CCC(c5ccc(NC6CCC(=O)NC6=O)cc5)CC4)CC3)cn2cc1NC(=O)c1cccc(C(F)(F)F)c1` (stereo not drawn) [Example 54, N-[2-[1-[2-[4-[4-[(2,6-dioxo-3-piperidyl)amino]phenyl]-1-piperidyl]-2-oxo-ethyl]-4-piperidyl]-7-isopropoxy-imidazo[1,2-a]pyridin-6-yl]-3-(trifluoromethyl)benzamide] showed a DC50 of 0.1 to 0.5 µM.
For `CC(C)Oc1cc2nc(C3CCN(CC(=O)N4CCC(c5ccc(NC6CCC(=O)NC6=O)cc5)CC4)CC3)cn2cc1NC(=O)c1ccc(F)cc1F` (stereo not drawn) [Example 59, N-(2-(1-(2-(4-(4-((2,6-dioxopiperidin-3-yl)amino)phenyl)piperidin-1-yl)-2-oxoethyl)piperidin-4-yl)-7-isopropoxyimidazo[1,2-a]pyridin-6-yl)-2,4-difluorobenzamide], the DC50 was 0.01 to 0.1 µM.
In the case of `CC(C)Oc1cc2nc(C3CCN(CC(=O)N4CCN(c5ccc(OC6CCC(=O)NC6=O)cc5)CC4)CC3)cn2cc1NC(=O)c1cccc(C(F)(F)F)n1` (stereo not drawn) [Example 28, N-[2-[1-[2-[4-[4-[(2,6-dioxo-3-piperidyl)oxy]phenyl]piperazin-1-yl]-2-oxo-ethyl]-4-piperidyl]-7-isopropoxy-imidazo[1,2-a]pyridin-6-yl]-6-(trifluoromethyl)pyridine-2-carboxamide], the DC50 is reported as 0.01 to 0.1 µM.
Work on `CC(C)Oc1cc2nc(C3CCN(C(=O)CN4CCC(c5cccc(NC6CCC(=O)NC6=O)c5F)CC4)CC3)cn2cc1NC(=O)c1cccc(C(F)(F)F)n1` (stereo not drawn) [Example 2, N-[2-[1-[2-[4-[3-[(2,6-dioxo-3-piperidyl)amino]-2-fluoro-phenyl]-1-piperidyl]acetyl]-4-piperidyl]-7-isopropoxy-imidazo[1,2-a]pyridin-6-yl]-6-(trifluoromethyl)pyridine-2-carboxamide] yielded a DC50 of 0.01 to 0.1 µM.
For `CC(C)Oc1cc2nc(C3CCN(CC(=O)N4CCC(c5ccc(OC6CCC(=O)NC6=O)cc5)CC4)CC3)cn2cc1NC(=O)c1cccc(C(F)(F)F)n1` (stereo not drawn) [Example 21, N-[2-[1-[2-[4-[4-[(2,6-dioxo-3-piperidyl)oxy]phenyl]-1-piperidyl]-2-oxo-ethyl]-4-piperidyl]-7-isopropoxy-imidazo[1,2-a]pyridin-6-yl]-6-(trifluoromethyl)pyridine-2-carboxamide], the DC50 was 0.01 to 0.1 µM.
Molecule `CC(C)Oc1cc2nc(CC3CCN(C(=O)CN4CCC(c5ccc(C6CCC(=O)NC6=O)cc5)CC4)CC3)cn2cc1NC(=O)c1cccc(C(F)(F)F)n1` (stereo not drawn) [Example 79, N-[2-[[1-[2-[4-[4-(2,6-dioxo-3-piperidyl)phenyl]-1-piperidyl]acetyl]-4-piperidyl]methyl]-7-isopropoxy-imidazo[1,2-a]pyridin-6-yl]-6-(trifluoromethyl)pyridine-2-carboxamide] has a DC50 of 0.01 to 0.1 µM.
In the case of `CC(C)Oc1cc2nc(C3CCC(CN4CCC(c5ccc6c(c5)n(C)c(=O)n6C5CCC(=O)NC5=O)CC4)CC3)cn2cc1NC(=O)c1cccc(C(F)(F)F)n1` (stereo not drawn) [Example 47, N-[2-[4-[[4-[1-(2,6-dioxo-3-piperidyl)-3-methyl-2-oxo-benzimidazol-5-yl]-1-piperidyl]methyl]cyclohexyl]-7-isopropoxy-imidazo[1,2-a]pyridin-6-yl]-6-(trifluoromethyl)pyridine-2-carboxamide], the DC50 is reported as 0.1 to 0.5 µM.
